# Measurements: patent US20090305954A1, “HISTIDINE-CONTAINING DIASTEREOMERIC PEPTIDES AND USES THEREOF” (Yeda Research and Development Co. Ltd., priority 2005, published 2009)
# Square brackets hold non-standard residues; d marks the D form. Peptide text beside a SMILES is read from it.
# Legend:
# [1] = test system: 22RV1 human PC cells xenograft; test: Inhibition of tumor growth in human prostate cancer xenografts, 22RV1; format: in vivo, nude male mice; conditions: 22RV1 xenograft
# Description: (i) Inhibition of tumor growth in human prostate cancer xenografts. Subcutaneouse (s.c.) implantation of human PC cells in mice was done as previously described in Gavish et al. (Gavish et al. 2002). Briefly, 0.1 ml AI CL1 or 22RV1 human PC cells (5×10^6 cells) in Matrigel were inoculated s.c. into the dorsal side of five to six week-old nude male mice weighing 20-25 g (Harlen Co., Israel). Two weeks after cell implantation, when the tumors diameter reached ≧5 mm (denoted as day 1), the diastereomer 13 and its all L-amino acid analog peptide (at 1 mg/kg, 0.1 mM), or vehicle (PBS, pH=7.4) were injected intratumorally (dosing volume of 2.5 ml/kg) three times a week for a total of 9 doses. Tumor size was measured by a caliper and recorded twice a week during a period of 28 days. Mice were weighed and tumor weight (mg) was estimated by using the formula of length×width×depth×0.52 in mm^3, assuming the specific gravity to be 1. At the end of the treatment, the mice were killed, and the tumors were removed, photographed, and weighed. The animal experimentation was conducted according to the rules of the Institutional Animal Care and Use Committee.
# Serum PSA levels. Four weeks after the first treatment, blood was withdrawn from the 22RV1-inoculated mice in order to determine the level of prostate specific antigen (PSA). The blood samples were taken directly to heparin containing tubes, centrifuged, and the supernatants were stored at −20° C. The CanAg PSA EIA kit (CanAg Diagnostics) was used to determine the total PSA in the mice plasma (Gavish et al., 2002). Tumor weight and PSA levels, represented as the mean±SE, were calculated from the raw data and then subjected to Student's t test. A value of P<0.05 was considered as statistically significant.
# [2] = test system: Murine Lewis lung carcinoma (LLC) cell line; test: XTT proliferation (cytotoxicity) assay, LLC; format: cell-based
# Description: (§1) The CL1 human prostate carcinoma (PC) cell line is an androgen-independent (AI) subclone of LNCaP cell line, which was generated by culturing androgen-dependent (AD) LNCaP cells in charcoal-stripped, […], as described (Patel et al. 2000). 22RV1 human PC cells are AI sub-clones of the AD prostatic adenocarcinoma CWR22 xenograft (Sramkoski et al. 1999). CL1 and 22RV1 (ATCC, USA) were grown in RPMI-1640 supplemented with 10% FCS (Biological Industries, Beit Haemek, Israel). PC3 and DU145 are androgen-insensitive (AI) (non-responsive), invasive human prostate cancer cell lines. NIH-3T3 mouse fibroblast cell lines (ATCC, USA) were grown in DMEM supplemented with 10% BS. Murine Lewis lung carcinoma (LLC) cell lines were also grown in DMEM medium supplemented with 10% fetal calf serum and antibiotics under the same conditions as above.
# (§2) The anticancer activity of the diastereomers 1, 5 and 11-16, 36-39, 42 and 44 was examined against human CL1 prostate cancer, murine LLC (Lewis lung carcinoma), DU 145 and PC3 cell lines. The cell selectivity of the diastereomeric peptides was also studied by examining their effect on NIH-3T3 normal mouse fibroblasts cell line.
# (§3) A 96-well plate (Falcon) was used for the XTT proliferation assay. Cancer cells were grown for 24 hours (day 1) in RPMI-1640 medium ([…] cells/100 μl for LLC, CL1, 22RVI, DU 145 and PC3, respectively) supplemented with 10% fetal calf serum and antibiotics, at 37° C., in humidified atmosphere at 5% CO2 and 95% air, resulting in growth medium pH of 7.4. NIH-3T3 fibroblast cells (1×10^4 cells/100 μl) were grown in DMEM medium supplemented with 10% bovine calf serum and antibiotics under the same conditions as described above for the cancerous cells. Wells in the last two rows served as blanks (medium only, for measuring the background color of the medium) and 100% survival controls (cells and medium only without treatment), respectively.
# (§4) In day 2, the peptides were dissolved in sterile PBS to a concentration of 200 μM (or 500 μM). The medium in the assay wells was replaced with 100 μl serum free medium. For the assays at pH 6, the medium was initially concentrated (×5 or ×10) and then diluted with double distilled water and addition of sodium carbonate. Before reaching the correct dilution, the medium was adjusted to pH 6 and then more water was added to reach the final dilution. The cells were grown in physiological pH, and the acidic pH was used only during the 24 hours incubation with the peptides. A sign for the correct acidity was a light yellow color of the medium. In line A of the plate, 160 μl of serum free medium was added, if the initial peptide concentration was 500 μM.
# (§5) Peptide solutions, 100 μl (or 40 μl) were added to each assay well in line A, such that the final concentration of the peptide was […] and the volume 200 μl. The medium in the wells was mixed with multichannel pipette 5 times and 100 μl of it were transferred to the next row of wells (line B), to give a peptide concentration of 50 μM. The double dilution of the peptides continued downstream the plate in the same manner. The plates were then incubated for 24 h.
# (§6) In day 3, XTT reaction solution was prepared by adding to 100 μl aliquots of activation solution (sodium 3′-[1-(phenyl-aminocarbonyl)-3,4-tetrazolium]-bis(4-methoxy-6-nitro) benzene sulfonic acid hydrate and N-methyl dibenzopyrazine methyl sulfate; mixed in a proportion of 50:1) (protected from light and kept in −20° C.), the substrate. 50 μl of XTT reaction solution were added to each well and the plates were incubated for 2 hours (37° C. and 5% CO2+95% air. In cases the incubation was not enough for the creation of the color, it was extended for up to 24 hours). The optical density was read at wavelength of 450 nm in an ELISA plate reader. Cell viability was determined relative to the control and final results were recorded. The results were confirmed using replications in at least three independent experiments. […]
# [3] = test system: CL1 human prostate carcinoma cell line; test: XTT proliferation (cytotoxicity) assay, CL1; format: cell-based
# Description: as §1, §2, §3, §4, §5, §6
# [4] = Acute toxicity test in mice (intravenous); format: in vivo; conditions: for mortality: mice, i.v., one dose per day for 2 days
# Description: Acute toxicity of peptides 1, 13 and 16 was examined by intravenously injecting mice (n=3), each with one dose per day for 2 days of 0.5 ml solution containing peptides 1, 13 or 16 at 3, 9, 15, 20 and 30 mg/kg of body weight.
# A week after injecting the peptides, blood samples were taken from the survived mice. […] Thus, the peptides 13 and 16 of the invention are not toxic even when administered at concentrations considerably higher than those necessary for their anticancer activity.
# [5] = test system: DU145 human prostate cancer cell line; test: XTT proliferation (cytotoxicity) assay, DU145; format: cell-based
# Description: as §1, §2, §3, §4, §5, §6
compound,measurement,setting,value
CC(C)C[C@H](NC(=O)[C@H](CC(C)C)NC(=O)[C@@H](CCCCN)NC(=O)[C@H](CC(C)C)NC(=O)[C@H](CC(C)C)NC(=O)[C@H](Cc1c[nH]cn1)NC(=O)[C@@H](CCCCN)NC(=O)[C@@H](CC(C)C)NC(=O)[C@H](CC(C)C)NC(=O)[C@@H](CCCCN)NC(=O)[C@H](Cc1c[nH]cn1)NC(=O)[C@H](CC(C)C)NC(=O)[C@@H](CC(C)C)NC(=O)[C@H](CCCCN)NC(=O)[C@@H](N)CC(C)C)C(N)=O [Peptide 13] (H-LK[dL]LH[dK]L[dL][dK]HLL[dK]LL-NH2),tumor weight,"[1]; 1 mg/kg intratumorally, 9 doses",significant reduction
same,PSA serum levels,[1]; four weeks after first treatment,marked decrease
same,Lethal Concentration (LC50),"[2]; pH 6, 24 h",12.5 µg/mL
same,Lethal Concentration (LC50),"[2]; pH 7.4, 24 h",12.5 µg/mL
same,potency compared with diastereomer 1,"[3]; CL1, pH 6.0",similarly or significantly more potent
same,Lethal Concentration (LC50),"[3]; CL1, pH 6, 24 h",6.25 µg/mL
same,Lethal Concentration (LC50),"[3]; CL1, pH 7.4, 24 h",6.25 µg/mL
same,mortality,[4]; 3 mg/kg,No mortality
same,mortality,[4]; 9 mg/kg,No mortality
same,mortality,[4]; 15 mg/kg,no mortality
same,mortality,[4]; 20 mg/kg,no mortality
same,blood differential and biochemistry tests,"[4]; survived mice, a week after injection",in the range of normal values
same,Lethal Concentration (LC50),"[5]; DU145, pH 6, 24 h",18.7 µg/mL
same,Lethal Concentration (LC50),"[5]; DU145, pH 7.4, 24 h",25 µg/mL
